Measured values reported in patent US20250282819A1, “MITOCHONDRIA-[…] PEPTIDE THAT CAN BE […] DELIVERED AT NANOMOLAR CONCENTRATION, AND USE THEREOF” (CAMP THERAPEUTICS INC., priority 2021, published 2025).
Entries after “also recorded” stand apart in the source; their conditions may differ. Where a SMILES comes first, the peptide text is derived from it.

Assays:
SH-SY5Y cells = experiment: ROS production inhibiting ability, comparison of SS-31 and CMP3013; assay type: cell-based; settings: CCCP, rotenone, antimycin A or H2O2, SS-31 100 nM or 1 μM, CMP3013 10 nM or 100 nM
Description: To compare effects of the two peptides on restoration of mitochondrial function, SS-31 and CMP3013 were tested for their ROS production inhibiting ability. The relative ROS levels in cells were compared by fluorescence intensity according to the method described in Experimental Example 6. SH-SY5Y cells were treated with four different mitochondrial damaging agents (200 μM CCCP, 50 μM rotenone, 10 μM antimycin A, or 50 μM H2O2) to induce production of ROS by mitochondrial damage.
The second method was performed as follows. First, 2×10^4 HeLa cells were seeded into a 96-well plate. After 24 hours, the cells were incubated with each peptide for 3 hours, and then staining with H2DCFDA (25 μM, 30 min) was performed. After performing washing twice with PBS, the cells in HBSS were used for analysis of ROS levels. The DCF signal of each well was obtained using a microplate reader (TECAN) at 37° C. (Ex/Em=485/535 nm).

[1] = Oligomerization tendency by HPLC retention time at 40 and 5° C.; assay type: physicochemical; settings: 10 μl of 0.2 mM peptide
Description: Specifically, 10 μl of each peptide solution at 0.2 mM was injected into HPLC, and the time at which the peptide was detected (RT) was measured at 40° C. and 5° C., respectively. Here, the stationary phase and mobile phase conditions of the HPLC were set using well-known methods. In general, the better the oligomer is formed, the detection time becomes longer at 40° C., which is a relatively higher temperature, thereby resulting in larger ΔΔRT that is a difference from the value measured at 5° C.

HeLa cells [2] = experiment: Preferential binding to CCCP-damaged mitochondria, confocal microscopy; assay type: cell-based; settings: 100 nM 3 hours, 20 μM CCCP
Description: To damage mitochondria, treatment with carbonyl cyanide m-chlorophenyl hydrazone (CCCP) at a concentration of 20 μM was performed for 30 minutes.
For microscopic observation, HeLa cells were cultured in glass-bottom dishes (SPL, 200350, Korea). The cells were then treated with peptides for 3 hours and stained with MitoTracker™ (Thermo Fisher Scientific, A1372, USA; 100 nM, 1 hr), nonyl acridine orange (NAO; Thermo Fisher Scientific, A1372; 100 nM, 1 hr), Hoechst 33342 (1 g/mL, 20 min), CellLight™ early endosomes-GFP (Thermo Fisher Scientific, C10586; 2 L/10,000 cells, 16 hr), and/or LysoTracker™ (Thermo Fisher Scientific, L7525; 50 nM, 30 min). The cells were then rinsed with PBS and HBSS was added thereto. Images of the stained cells were obtained using a microscope (Zeiss LSM 880 and ELYRA PS.1). To generate ultra-high resolution images, a structured illumination process was performed with ZEN Black software. Pearson r values were calculated by using ImageJ software.

[3] = Cytotoxicity by WST-1 assay; assay type: cell-based; settings: human, HeLa cells, one day, read-out: concentration at which 50% of the cultured cells were killed
Description: The cytotoxicity was measured by WST-1 assay. Specifically, 1×10^4 HeLa cells were seeded into 96-well plates. After 24 hours, the cells were treated with different concentrations of CMP3013 peptide indicated in FIG. 12 and incubated for one day. At the end of the incubation, the culture medium was replaced with new culture medium, treatment with EZ-Cytox (DoGEN, South Korea) at 10 μL was performed per well, and incubation was performed for 30 minutes. Then, the absorbance was measured at 450 nm. As a result, it was identified that the cytotoxicity of CMP3013 was only observed at micromolar or higher levels, and the concentration, at which 50% of the cultured cells were killed, reached 10 micromolar (FIG. 12).

HeLa cells [4] = experiment: Cristae protecting ability by TEM; assay type: cell-based; settings: 50 or 100 nM 2 hours, then 0.5 mM H2O2 2 hours
From the text: In order to determine the mode of action of the peptide according to the disclosure, attenuation of cristae number in mitochondria was examined in relation to impaired mitochondrial function caused by H2O2 treatment. In other words, it was investigated whether promotion of normal mitochondrial function caused by CMP3013 was related to preservation of cristae structure. To evaluate this protective effect, transmission electron microscopy (TEM) images were used to observe changes in the shape and number of cristae in damaged HeLa cells in the presence or absence of CMP3013.
1.8×10^6 HeLa cells were fixed with modified Karnovsky fixative [2% paraformaldehyde and 2% glutaraldehyde dissolved in […]] at 4° C. for 3 hours. A sample was washed three times with […] sodium cacodylate buffer (pH 7.2) at 4° C. for 10 minutes, and then post-fixed at 4° C. for 2 hours with 1% osmium tetroxide dissolved in […] sodium cacodylate buffer (pH 7.2). The sample was then washed twice briefly with distilled water. Subsequently, the sample was then en bloc stained with 0.5% uranyl acetate at 4° C. overnight. […]

HeLa cells [5] = experiment: Co-localization with endosome, lysosome and cardiolipin (NAO) markers; assay type: cell-based
Description: Next, to investigate whether mitochondrial damage affects the amount of peptide present in lysosomes, cardiolipin-specific targeting was investigated using NAO in the presence or absence of CCCP.
For microscopic observation, HeLa cells were cultured in glass-bottom dishes (SPL, 200350, Korea). The cells were then treated with peptides for 3 hours and stained with MitoTracker™ (Thermo Fisher Scientific, A1372, USA; 100 nM, 1 hr), nonyl acridine orange (NAO; Thermo Fisher Scientific, A1372; 100 nM, 1 hr), Hoechst 33342 ([…], 20 min), CellLight™ early endosomes-GFP (Thermo Fisher Scientific, C10586; […], 16 hr), and/or LysoTracker™ (Thermo Fisher Scientific, L7525; 50 nM, 30 min). The cells were then rinsed with PBS and HBSS was added thereto. Images of the stained cells were obtained using a microscope (Zeiss LSM 880 and ELYRA PS.1). To generate ultra-high resolution images, a structured illumination process was performed with ZEN Black software. Pearson r values were calculated by using ImageJ software.

**Q.** For CC(=O)N[C@@H](CC1CCCCC1)C(=O)N[C@H]1CSSC[C@@H](C(=O)N[C@@H](CCCNC(=N)N)C(N)=O)NC(=O)[C@H](CC2CCCCC2)NC(=O)[C@H](CCCNC(=N)N)NC(=O)[C@H](CCCNC(=N)N)NC(=O)[C@H](CC2CCCCC2)NC(=O)[C@H](CC(C)C)NC(=O)[C@H](CCCNC(=N)N)NC(=O)[C@@H](NC(=O)[C@H](CC2CCCCC2)NC(C)=O)CSSC[C@@H](C(=O)N[C@@H](CCCNC(=N)N)C(N)=O)NC(=O)[C@H](CC2CCCCC2)NC(=O)[C@H](CCCNC(=N)N)NC(=O)[C@H](CCCNC(=N)N)NC(=O)[C@H](CC2CCCCC2)NC(=O)[C@H](CC(C)C)NC(=O)[C@H](CCCNC(=N)N)NC1=O [CMP3013] (HELM PEPTIDE1{[ac].[Cha].C.R.L.[Cha].R.R.[Cha].C.R.[am]}|PEPTIDE2{[ac].[Cha].C.R.L.[Cha].R.R.[Cha].C.R.[am]}$PEPTIDE1,PEPTIDE2,3:R3-10:R3|PEPTIDE1,PEPTIDE2,10:R3-3:R3$$$V2.0), which “ROS production inhibiting ability” value (SH-SY5Y cells) is on record?
**A.** The value was “equivalent or better ROS production inhibiting ability than SS-31”.

**Q.** And the “Oligomerization tendency (RT at 40-5° C.) ΔΔRT” value [1]?
**A.** The value was 2.683 min.

**Q.** And the “targeting of damaged mitochondria” value (HeLa cells [2])?
**A.** Its value is “moves into damaged mitochondria; also recorded: preferentially target damaged mitochondria”.

**Q.** What about the CC50 at 24 h [3] of the same compound?
**A.** The CC50 at 24 h was 10 µM.

**Q.** What about the “number of cristae structures (TEM)” value (HeLa cells [4]) of the same compound?
**A.** Its value is “same number of normal cristae structures as in the control group with no treatment”.

**Q.** And the “proportion of peptide present in lysosomes (Pearson r, CMP3013-Lysotracker)” value (HeLa cells [5]; absence of CCCP)?
**A.** Its value is 0.30.

**Q.** And the “co-localization of CMP3013 with cardiolipin (NAO), Pearson r” value (HeLa cells [5]; not treated with CCCP)?
**A.** The value was 0.08.

**Q.** What about the “proportion of peptide present in lysosomes (Pearson r, CMP3013-Lysotracker)” value (HeLa cells [5]; presence of CCCP) of the same compound?
**A.** The value was 0.29.

**Q.** What about the “co-localization of CMP3013 with cardiolipin (NAO), Pearson r” value (HeLa cells [5]; treated with CCCP) of the same compound?
**A.** Its value is 0.43.
